± gives the expanded uncertainty stated by the source.
Assay: activity coefficient (dimensionless); of the first substance listed, at infinite dilution; xn = mol fraction of the nth substance listed
Settings: 101.33 kPa, Liquid, Chromatography, x1 = 0

Cc1ccccc1C [1,2-dimethylbenzene] + CCCC[n+]1ccc(C)cc1.F[B-](F)(F)F
activity coefficient (313.1 K): 4.48 ± 0.2
activity coefficient (333.1 K): 4.55 ± 0.21
activity coefficient (353.1 K): 4.59 ± 0.21

CCCCCCCCCC [decane] + CCCCn1cc[n+](C)c1.F[B-](F)(F)F
activity coefficient (313.1 K): 177 ± 8.4
activity coefficient (333.1 K): 144 ± 6.8
activity coefficient (353.1 K): 125 ± 5.9

CCCCCCC [heptane] + CCCCn1cc[n+](C)c1.F[B-](F)(F)F
activity coefficient (313.1 K): 78.7 ± 3.7
activity coefficient (333.1 K): 69 ± 3.2
activity coefficient (353.1 K): 62.2 ± 2.9

CCCCCCCC [octane] + CCCC[n+]1ccc(C)cc1.F[B-](F)(F)F
activity coefficient (313.1 K): 130 ± 6.1
activity coefficient (333.1 K): 107 ± 5
activity coefficient (353.1 K): 99.8 ± 4.7

CC1CCCCC1 [methylcyclohexane] + CCCC[N+]1(C)CCCC1.O=S(=O)([N-]S(=O)(=O)C(F)(F)F)C(F)(F)F
activity coefficient (313.1 K): 8.53 ± 0.39
activity coefficient (333.1 K): 7.52 ± 0.34
activity coefficient (353.1 K): 6.76 ± 0.31

CC1CCCCC1 [methylcyclohexane] + CCCC[n+]1ccc(C)cc1.F[B-](F)(F)F
activity coefficient (313.1 K): 41.5 ± 1.9
activity coefficient (333.1 K): 34.8 ± 1.6
activity coefficient (353.1 K): 33.1 ± 1.5

Cc1ccccc1 [toluene] + CCCC[n+]1ccc(C)cc1.F[B-](F)(F)F
activity coefficient (313.1 K): 2.66 ± 0.12
activity coefficient (333.1 K): 2.69 ± 0.12
activity coefficient (353.1 K): 2.73 ± 0.12

CC1CCCCC1 [methylcyclohexane] + CCCCn1cc[n+](C)c1.F[B-](F)(F)F
activity coefficient (313.1 K): 45.7 ± 2.1
activity coefficient (333.1 K): 40.5 ± 1.9
activity coefficient (353.1 K): 35.5 ± 1.6

Cc1ccccc1C [1,2-dimethylbenzene] + CCCCn1cc[n+](C)c1.F[B-](F)(F)F
activity coefficient (313.1 K): 4.55 ± 0.21
activity coefficient (333.1 K): 4.51 ± 0.21
activity coefficient (353.1 K): 4.49 ± 0.2

CCCCCC [hexane] + CCCC[n+]1ccc(C)cc1.F[B-](F)(F)F
activity coefficient (313.1 K): 59.8 ± 2.8
activity coefficient (333.1 K): 52.4 ± 2.4
activity coefficient (353.1 K): 49 ± 2.3

CCCCCC [hexane] + CCCC[N+]1(C)CCCC1.O=S(=O)([N-]S(=O)(=O)C(F)(F)F)C(F)(F)F
activity coefficient (313.1 K): 12.6 ± 0.58
activity coefficient (333.1 K): 10.2 ± 0.47
activity coefficient (353.1 K): 9.5 ± 0.44

CC1CCCC1 [methylcyclopentane] + CCCCn1cc[n+](C)c1.F[B-](F)(F)F
activity coefficient (313.1 K): 35.6 ± 1.7
activity coefficient (333.1 K): 30.6 ± 1.4
activity coefficient (353.1 K): 28.8 ± 1.3

CC1CCCC1 [methylcyclopentane] + CCCC[n+]1ccc(C)cc1.F[B-](F)(F)F
activity coefficient (313.1 K): 31.3 ± 1.4
activity coefficient (333.1 K): 26.4 ± 1.2
activity coefficient (353.1 K): 25.8 ± 1.2

CCCCCCCCC [nonane] + CCCC[N+]1(C)CCCC1.O=S(=O)([N-]S(=O)(=O)C(F)(F)F)C(F)(F)F
activity coefficient (313.1 K): 33.1 ± 1.5
activity coefficient (333.1 K): 29.2 ± 1.4
activity coefficient (353.1 K): 26.8 ± 1.2

Cc1ccccc1 [toluene] + CCCCn1cc[n+](C)c1.F[B-](F)(F)F
activity coefficient (313.1 K): 3.28 ± 0.15
activity coefficient (333.1 K): 3.33 ± 0.15
activity coefficient (353.1 K): 3.4 ± 0.15

CCCCCCCCCC [decane] + CCCC[N+]1(C)CCCC1.O=S(=O)([N-]S(=O)(=O)C(F)(F)F)C(F)(F)F
activity coefficient (313.1 K): 50.1 ± 2.3
activity coefficient (333.1 K): 45.3 ± 2.1
activity coefficient (353.1 K): 40.6 ± 1.9

CCCCCCCCCC [decane] + CCCC[n+]1ccc(C)cc1.F[B-](F)(F)F
activity coefficient (313.1 K): 306 ± 14
activity coefficient (333.1 K): 234 ± 11
activity coefficient (353.1 K): 223 ± 11

CCCCCCC [heptane] + CCCC[n+]1ccc(C)cc1.F[B-](F)(F)F
activity coefficient (313.1 K): 84.8 ± 4
activity coefficient (333.1 K): 73.7 ± 3.5
activity coefficient (353.1 K): 67.4 ± 3.1

Cc1ccccc1 [toluene] + CCCC[N+]1(C)CCCC1.O=S(=O)([N-]S(=O)(=O)C(F)(F)F)C(F)(F)F
activity coefficient (313.1 K): 1.22 ± 0.04
activity coefficient (333.1 K): 1.29 ± 0.04
activity coefficient (353.1 K): 1.37 ± 0.05

CCCCCCCC [octane] + CCCC[N+]1(C)CCCC1.O=S(=O)([N-]S(=O)(=O)C(F)(F)F)C(F)(F)F
activity coefficient (313.1 K): 23.7 ± 1.1
activity coefficient (333.1 K): 20.8 ± 0.96
activity coefficient (353.1 K): 19.1 ± 0.88

CCCCCC [hexane] + CCCCn1cc[n+](C)c1.F[B-](F)(F)F
activity coefficient (313.1 K): 56.7 ± 2.6
activity coefficient (333.1 K): 47.8 ± 2.2
activity coefficient (353.1 K): 45.2 ± 2.1

Cc1ccccc1C [1,2-dimethylbenzene] + CCCC[N+]1(C)CCCC1.O=S(=O)([N-]S(=O)(=O)C(F)(F)F)C(F)(F)F
activity coefficient (313.1 K): 1.57 ± 0.06
activity coefficient (333.1 K): 1.59 ± 0.06
activity coefficient (353.1 K): 1.61 ± 0.06

CC1CCCC1 [methylcyclopentane] + CCCC[N+]1(C)CCCC1.O=S(=O)([N-]S(=O)(=O)C(F)(F)F)C(F)(F)F
activity coefficient (313.1 K): 10.3 ± 0.47
activity coefficient (333.1 K): 9.08 ± 0.42
activity coefficient (353.1 K): 8.11 ± 0.37

CCCCCCC [heptane] + CCCC[N+]1(C)CCCC1.O=S(=O)([N-]S(=O)(=O)C(F)(F)F)C(F)(F)F
activity coefficient (313.1 K): 17 ± 0.79
activity coefficient (333.1 K): 15.3 ± 0.71
activity coefficient (353.1 K): 13.6 ± 0.62

CCCCCCCCC [nonane] + CCCC[n+]1ccc(C)cc1.F[B-](F)(F)F
activity coefficient (313.1 K): 182 ± 8.6
activity coefficient (333.1 K): 153 ± 7.2
activity coefficient (353.1 K): 131 ± 6.2

CCCCCCCC [octane] + CCCCn1cc[n+](C)c1.F[B-](F)(F)F
activity coefficient (313.1 K): 92.2 ± 4.3
activity coefficient (333.1 K): 83.7 ± 3.9
activity coefficient (353.1 K): 72.4 ± 3.4

Source: the NIST ThermoML archive (doi:10.1021/acs.jced.9b00170)
